In US5750700A, “Certain 1-substituted aminomethyl imidazole and pyrrole derivatives: novel dopamine receptor subtype specific ligands” (Neurogen Corporation, priority 1995, dated 1998):
Counter-ions that a name gives are not always drawn.

Columns and labels:
[1] = molecular target: D2 and D3 receptor (rat striatal homogenates); experiment: D2 and D3 receptor binding activity: displacement of 3H-raclopride in rat striatal homogenates; parameters: species or system adult male Sprague Dawley rats; conditions: 0.5 nM 3H-raclopride, nonspecific binding 10^-4M dopamine
Description: Assay for D2 and D3 Receptor Binding Activity Striatial tissue is dissected from adult male Sprague Dawley rats or BHK 293 cells are harvested containing recombinantly produced D2 or D3 receptors. The sample is homogenized in 100 volumes (w/vol) of 0.05M Tris HCl buffer at 4° C. and pH 7.4. The sample is then centrifuged at 30,000×g and resuspended and rehomogenized. The sample is then centrifuged as described and the final tissue sample is frozen until use. The tissue is resuspended 1:20 (wt/vol) in 0.05M Tris HCl buffer containing 100 mM NaCl. […] The binding characteristics of examples of this patent are shown in Table 1 for Rat Striatal Homogenates.

[2] = molecular target: T1, human dopamine D4 receptor subtype (Homo sapiens, UniProt P21917); experiment: D4 receptor binding activity: displacement of [3H] YM-09151-2; conditions: 0.1 nM [3H] YM-09151-2; 60 minutes at 25° C.; clonal cell lines expressing human D4
T1 construct: expressed in transfected cells
T1 sequence (P21917 1-419): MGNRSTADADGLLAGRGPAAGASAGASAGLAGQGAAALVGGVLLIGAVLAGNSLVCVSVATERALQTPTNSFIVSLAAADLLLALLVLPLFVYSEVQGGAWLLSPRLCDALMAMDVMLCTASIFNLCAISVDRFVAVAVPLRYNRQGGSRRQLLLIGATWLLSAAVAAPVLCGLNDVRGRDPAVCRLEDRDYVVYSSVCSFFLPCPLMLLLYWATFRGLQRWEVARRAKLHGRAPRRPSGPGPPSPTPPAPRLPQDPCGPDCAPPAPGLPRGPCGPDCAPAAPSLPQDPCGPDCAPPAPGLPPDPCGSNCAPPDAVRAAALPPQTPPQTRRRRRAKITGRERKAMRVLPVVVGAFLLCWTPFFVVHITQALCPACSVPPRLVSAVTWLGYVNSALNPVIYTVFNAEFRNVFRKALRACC
Description: Assay for D4 Receptor Binding Activity
Clonal cell lines expressing the human dopamine D4 receptor subtype were harvested in PBS and the cells centrifuged and the pellets stored at -80° C. until used in the binding assay. The pellets were resuspended and the cells lysed at 4° C. in 50 mM Tris pH 7.4 buffer containing 120 mM NaCl, 2 mM EDTA and 5 mM mMgCl2. The homogenate is centrifuged at 48000×g for 10 minutes at 4° C. The resulting pellet is resuspended in fresh buffer and centrifuged again. After resuspension of the pellet in fresh buffer at 100 ul aliquot removed for the protein determination. The remaining homogenate is centrifuged as above, the supernatant removed and the pellet stored at 4° C. until needed at which time it is resuspended to a final concentration of 625 ug/ml (250 ug per sample) with 50 mM Tris buffer (pH 7.4) and 120 mM NaCl just prior to use. Incubations were carried out for 60 minutes at 25° C. in the presence of 0.1 nM [^3 H] YM-09151-2. The incubation was terminated by rapid filtration through Whatman GF/C filters and rinsed with 2×4 ml washes of chilled 50 mM Tris (pH 7.4) and 120 mM NaCl. Nonspecific binding was determined with 1 uM spiperone and radioactivity determined by counting in an LKB beta counter. Binding parameters were determined by non-linear least squares regression analysis, from which the inhibition constant Ki could be calculated for each test compound. The binding characteristics of some examples of this patent are shown in Table 2 for the dopamine D4 binding assay. […] YM-09151-2 from the human dopamine D4 receptor subtype of below […].

| IC50 [1] [nM] | Ki [2] [nM] | SMILES |
| --- | --- | --- |
| 142 | 3 | c1ccc(CC2CCN(Cc3cn(-c4ccccc4)cn3)CC2)cc1 [Compound 1, 1-phenyl-4[(4-benzyl-piperidin-1-yl)-methyl]imidazole] |
| 3 | 10 | c1ccc(C2CCN(Cc3cn(-c4ccccc4)cn3)CC2)cc1 [Compound 2, 1-Phenyl-4[(4-phenyl-piperidin-1-yl)methyl]imidazole dihydrochloride] |
| 6 | 2 | c1ccc(N2CCN(Cc3cn(-c4ccccc4)cn3)CC2)cc1 [Compound 3, 1-Phenyl-4[(4-phenyl-piperazin-1-yl)methyl]imidazole dihydrochloride] |
| 194 | 3 | Fc1ccc(N2CCN(Cc3cn(-c4ccccc4)cn3)CC2)cc1 [Compound 6, 1-Phenyl-4[(4-(4-fluorophenyl)-piperazin-1-yl)methyl]imidazole dihydrochloride] |
